In publication PMC6522372 (Nature chemical biology, 2019):

Legend:
[1] = target: T1, McsB (Geobacillus stearothermophilus, UniProt P0DMM5); assay: SPR, steady-state; assay type: binding
T1 sequence (P0DMM5 1-363): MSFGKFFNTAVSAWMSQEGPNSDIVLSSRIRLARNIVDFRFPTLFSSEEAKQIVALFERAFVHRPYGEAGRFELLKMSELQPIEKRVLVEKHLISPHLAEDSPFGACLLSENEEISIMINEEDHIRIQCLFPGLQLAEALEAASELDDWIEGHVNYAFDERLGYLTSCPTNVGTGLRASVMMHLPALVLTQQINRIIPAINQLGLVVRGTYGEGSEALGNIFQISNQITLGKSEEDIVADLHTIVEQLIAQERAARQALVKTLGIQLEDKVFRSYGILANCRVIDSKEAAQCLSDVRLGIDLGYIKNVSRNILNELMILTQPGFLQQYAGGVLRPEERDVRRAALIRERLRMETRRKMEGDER

[2] = target: T2, McsB (Geobacillus stearothermophilus, UniProt P0DMM5); assay: X-ray crystal structure; assay type: binding
T2 sequence (P0DMM5 1-355): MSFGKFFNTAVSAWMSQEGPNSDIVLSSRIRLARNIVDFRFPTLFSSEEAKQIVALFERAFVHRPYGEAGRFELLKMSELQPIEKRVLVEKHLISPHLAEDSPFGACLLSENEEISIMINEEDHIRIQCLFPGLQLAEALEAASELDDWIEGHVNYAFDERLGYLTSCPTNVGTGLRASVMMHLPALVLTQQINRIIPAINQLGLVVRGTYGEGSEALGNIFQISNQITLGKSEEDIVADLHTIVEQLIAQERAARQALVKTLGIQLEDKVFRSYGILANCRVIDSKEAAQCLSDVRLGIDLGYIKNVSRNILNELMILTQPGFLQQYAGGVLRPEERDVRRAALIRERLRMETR

[3] = target: the molecule itself; assay: SEC-MALS

Nc1ncnc2c1ncn2[C@@H]1O[C@H](COP(=O)(O)OP(=O)(O)O)[C@@H](O)[C@H]1O [ADP]
Kd [1]: 208 ± 60 µM

Nc1ncnc2c1ncn2[C@@H]1O[C@H](COP(=O)(O)OP(N)(=O)O)[C@@H](O)[C@H]1O [AMP-PN]
X-ray crystal structure (soak with AMP-PNP, hydrolysed to AMP-PN) [2]: the Mg⋅ATP-binding site shows a clear electron density for AMP-PN

Nc1ncnc2c1ncn2[C@@H]1O[C@H](COP(=O)(O)OP(=O)(O)OP(=O)(O)O)[C@@H](O)[C@H]1O [ATP]
Kd [1]: 262 ± 27 µM

B1: full-length McsB R338A/D339A (enzyme)
chain: MSFGKFFNTAVSAWMSQEGPNSDIVLSSRIRLARNIVDFRFPTLFSSEEAKQIVALFERAFVHRPYGEAGRFELLKMSELQPIEKRVLVEKHLISPHLAEDSPFGACLLSENEEISIMINEEDHIRIQCLFPGLQLAEALEAASELDDWIEGHVNYAFDERLGYLTSCPTNVGTGLRASVMMHLPALVLTQQINRIIPAINQLGLVVRGTYGEGSEALGNIFQISNQITLGKSEEDIVADLHTIVEQLIAQERAARQALVKTLGIQLEDKVFRSYGILANCRVIDSKEAAQCLSDVRLGIDLGYIKNVSRNILNELMILTQPGFLQQYAGGVLRPEEAAVRRAALIRERLRMETRRKMEGDER
stoichiometry N [3]: 2
